According to article PMC10933169, “Potent anticancer activity of (Z)-3-hexenyl-β-D-glucopyranoside in pancreatic cancer cells” (Naunyn-Schmiedeberg's Archives of Pharmacology, 2023):
Values joined by “and” are separate entries in the source; they are usually repeats but may differ in a detail not shown here. Equal values may be shown once.

Assays:
Type in all cases: cell-based
Panc1 cells [1] = assay: Flow cytometry analysis of cell DNA contents / cell cycle (propidium iodide); conditions: 10 µM
Method: All reagents and kits for this assay were obtained from Abcam (Abcam Technology, Boston, MA, USA). The detection of DNA cell contents and cell cycle status was conducted following the established method (Xu et al. [2001]). To provide a brief overview, Panc1 pancreatic cancer cells (ATCC, Manassas, Virginia, USA) were cultured in a single-cell suspension in DMEM medium (Invitrogen, Life Technologies, Rockville, MD, USA). Subsequently, the cells were fixed in 66% ethanol (Sigma-Aldrich, Louis, MO, USA) and kept on ice for 2 hours. Afterward, the cancer cells were washed with a PBS (Sigma-Aldrich, Louis, MO, USA) solution (5 mL of 10X PBS + 45 mL water), re-cultured in fresh medium, and incubated at 37 °C for 24 hours. A concentration of 10 µM of (Z)-3-hexenyl-β-D-glucopyranoside was added in triplicate, chosen based on previously reported data (Ponnusamy et al. [2016]; Xu et al. [2001]) for 24h. The second dose of 10 µM of (Z)-3-hexenyl-β-D-glucopyranoside was added to the Panc1 cells then incubated for 24 h. Following a 48-hour incubation period from the first dose, the cells were trypsinized, fixed, and stained with propidium iodide-RNase enzyme reagent (9.45 mL PBS + 500 μL 20X propidium iodide + 50 μL 200X RNase) from Abcam Technology, Boston, MA, USA. […] The incubation time for fluorescence quantification was 30 minutes. The experiment was repeated twice.

[2] = tested on: Bax gene expression in Panc1 cells; assay: SYBR Green RT-PCR gene expression, Bax; conditions: 48 h, (Z)-3-hexenyl-β-D-glucopyranoside at 10 µM, control 1.436
Method: (§1) The effects of 10 µM of (Z)-3-hexenyl-β-D-glucopyranoside on the mRNA expression of caspase3, bax, and Bcl-2 genes were investigated using the reverse transcription-polymerase […] technique. After a 48-hour incubation of (Z)-3-hexenyl-β-D-glucopyranoside in Panc1 (pancreatic carcinoma) cells, mRNA isolation of the selected proteins was performed using the RN easy extraction kit (Qiagen, Hilden, Germany), following previously described methods (Janicke et al. [1998]). For real-time quantitative PCR of the RNA templates, a one-step RT-PCR kit with SYBR® Green (Bio-Rad SYBR Green PCR MMX, Hercules, California, USA) was added to a 25 μL 2X SYBR® Green RT-PCR reaction mix (Bio-Rad, Hercules, California, USA). The reaction mix contained 2X reaction buffer with 0.4 mM of each dNTP, magnesium chloride, iTaq DNA polymerase, 20 nM fluorescein SYBR® Green I dye, stabilizers, 11 μL nuclease-free water, 1.5 μL reverse primer (10 μM), 1.5 μL forward primer (10 μM), 1 μL iScript reverse transcriptase, and RNA template (1 pg to 100 ng total RNA). The cDNA synthesis and PCR amplifications were performed in the same tube using Rotor-Gene RT-PCR (Qiagen, Hilden, Germany) software 1.7 (Abed et al. [2021]). The primers used in the RT-PCR reaction were obtained from Corbett Life Science Division (Reg. No. QEC21313), Corbett Research, Mortlake, Australia. […]

Panc1 cells [3] = assay: Annexin V-FITC cellular apoptotic assay; conditions: 10 µM, 48 h
Method: The reagents used in this assay included the Annexin V-FITC kit (Abcam Technology, Boston, MA, USA), 1X binding buffer (Abcam Technology, Boston, MA, USA), and propidium iodide (Bio Vision Research Products, Mountain View, CA, USA). Panc1 cells were seeded in 6-well plates and incubated at 37 °C for 24 hours. Compound 1 ((Z)-3-hexenyl-β-D-glucopyranoside) was then added to the cultivated Panc1 6-well plates at a concentration of 10 µM and incubated for 48 hours. Subsequently, the cancer cells were trypsinized and centrifuged for 10 minutes at 300 rpm. The resulting precipitate was resuspended in 500 µL of 1X binding buffer. Annexin V-FITC (5 µL) and propidium iodide (5 µL) reagents were added to the treated cancer cell plates and incubated for 5 minutes in the dark at room temperature. A flow cytometer (Novocyte, Agilent technology, Santa Clara, CA, USA) with an excitation maximum of 488 nm and an emission maximum of 530 nm was employed to measure the intensity of annexin-binding phosphatidylserine (PS) and consequently determine the amount of apoptotic cells (Koopman et al. [1994]).

[4] = tested on: Panc1 (pancreatic carcinoma) cells; assay: MTT cytotoxicity assay, Panc1; conditions: Homo sapiens, PANC-1, 48 h treatment
Method: (§2) The cell lines PANC-1 (pancreatic carcinoma), MCF7 (breast carcinoma), HepG2 (hepatocellular carcinoma), and WI-38 (normal lung fibroblast cells) were obtained from the American Type Culture Collection (ATCC) located in Manassas, Virginia, United States. These cell lines were cultured in DMEM (Invitrogen, Life Technologies, Rockville, MD, USA) medium supplemented with 10% FBS (Fetal Bovine Serum, Hyclone, Thermo Fisher Scientific, Waltham, MA, USA) and 1% penicillin (Sigma-Aldrich, Louis, MO, USA). The cells were maintained at 37°C in a 5% CO2 and 95% humidity environment for a maximum period of two weeks to ensure their viability for further experimentation. Cell detachment was achieved using a solution containing 0.25% (w/v) trypsin (Sigma-Aldrich, Louis, MO, USA) and 0.53 mM EDTA ((Sigma-Aldrich, Louis, MO, USA), followed by re-cultivation in fresh media.
The cultivated cells were seeded in 96-well plates at a concentration of 1 × 10^4 cells/100 μL per well (Naik et al. [2014]). The cultured plates were then incubated for 24 hours at 37°C. […] The tested concentrations of the compounds (1, 10, 30, and 100 µg/mL) in 0.01 - 0.1% DMSO in ddH2O were prepared by diluting the stock solutions with double-distilled water (ddH2O). […] A negative control using 0.1% DMSO in ddH2O was also included. The treated cells were further incubated for 48 hours at 37 °C. The media of the treated and control plates were removed and replaced by fresh media containing MTT (Sigma, Louis, MO, USA) reagent in a concentration of 1 mg/mL (Ponnusamy et al. [2016]), then incubated for 2 hours. The viability of the cancer cells was determined by measuring the amount of formazan formed by viable cells. […] The intensity of the produced colour was measured using an ELISA plate reader (Bio-Tek EL 800, Agilent technology, Santa Clara, CA, USA) at wavelength of 570 nm. The percent of cells viability was calculated by the following equation: %viability=AA570oftreated-AA570ofblank/AA570ofcontrol-AA570ofblank×100
(§3) AA Average of triplicate absorbances for each sample concentration

[5] = tested on: Casp3 gene expression in Panc1 cells; assay: SYBR Green RT-PCR gene expression, caspase3; conditions: 48 h, (Z)-3-hexenyl-β-D-glucopyranoside at 10 µM, control 1
Method: as §1

[6] = tested on: HepG2 (hepatocellular carcinoma) cells; assay: MTT cytotoxicity assay, HepG2; conditions: Homo sapiens, 48 h treatment
Method: as §2, with “Cell detachment was achieved using a solution containing 0.25% (w/v) trypsin (Sigma-Aldrich, Louis, MO, USA) and 0.53 mM EDTA ((Sigma-Aldrich, Louis, MO, USA), followed by re-cultivation in fresh media.” left out
(§4) The cultivated cells were seeded in 96-well plates at a concentration of 1 × 10^4 cells/100 μL per well (Naik et al. [2014]). […] The viability of the cancer cells was determined by measuring the amount of formazan formed by viable cells. […] The intensity of the produced colour was measured using an ELISA plate reader (Bio-Tek EL 800, Agilent technology, Santa Clara, CA, USA) at wavelength of 570 nm. The percent of cells viability was calculated by the following equation: %viability=AA570oftreated-AA570ofblank/AA570ofcontrol-AA570ofblank×100
as §3

[7] = tested on: WI-38 (normal lung fibroblast cells); assay: MTT cytotoxicity assay, WI-38 normal cells; conditions: 48 h treatment, read-out: Cytotoxicity IC50 WI38
Method: as §2, with “Cell detachment was achieved using a solution containing 0.25% (w/v) trypsin (Sigma-Aldrich, Louis, MO, USA) and 0.53 mM EDTA ((Sigma-Aldrich, Louis, MO, USA), followed by re-cultivation in fresh media.” left out
as §4, §3

[8] = MTT cytotoxicity assay, WI-38 normal cells; conditions: human, WI-38 normal lung fibroblast cells, 48 h treatment, read-out: Cytotoxicity IC50 WI38
Method: as §2, with “Cell detachment was achieved using a solution containing 0.25% (w/v) trypsin (Sigma-Aldrich, Louis, MO, USA) and 0.53 mM EDTA ((Sigma-Aldrich, Louis, MO, USA), followed by re-cultivation in fresh media.” left out
as §4, §3

[9] = tested on: Bcl-2 gene expression in Panc1 cells; assay: SYBR Green RT-PCR gene expression, Bcl-2; conditions: 48 h, (Z)-3-hexenyl-β-D-glucopyranoside at 10 µM, control 1
Method: as §1

[10] = tested on: MCF7 (breast carcinoma) cells; assay: MTT cytotoxicity assay, MCF7; conditions: Homo sapiens, 48 h treatment
Method: as §2, with “Cell detachment was achieved using a solution containing 0.25% (w/v) trypsin (Sigma-Aldrich, Louis, MO, USA) and 0.53 mM EDTA ((Sigma-Aldrich, Louis, MO, USA), followed by re-cultivation in fresh media.” left out
as §4, §3

| SMILES | Cell cycle effect (Comment) (Panc1 cells [1]) | DNA content %G2/M (Panc1 cells [1]; control 10.47) [%] | DNA content %S (Panc1 cells [1]; control 32.11) [%] | DNA content %G0-G1 (Panc1 cells [1]; control 57.42) [%] | Cell cycle effect (Comment) (Panc1 cells [1]; listed as E-W-4) | RT-PCR results fold change Bax [2] [fold] | Necrosis (Panc1 cells [3]) [%] | Apoptosis Late (Panc1 cells [3]; control 0.28%) [%] | Apoptosis Early (Panc1 cells [3]; control 0.47%) [%] | Apoptosis Total (Panc1 cells [3]; control 1.86%) | IC50 [4] [µM] | RT-PCR results fold change Casp3 [5] [fold] | IC50 [6] [µM] | IC50 [7] [µM] | IC50 at 48 h [8] [µM] | RT-PCR results fold change Bcl-2 [9] [fold] | IC50 [10] [µM] |
| --- | --- | --- | --- | --- | --- | --- | --- | --- | --- | --- | --- | --- | --- | --- | --- | --- | --- |
| CCC=CCCOC1OC(CO)C(O)C(O)C1O [Compound 1, (Z)-3-hexenyl-β-D-glucopyranoside] | cell growth arrest at the S phase | 3.38 | 44.01 | 52.61 | Cell growth arrest@ S phase | 3.173 | 5.52 | 9.85 | 26.15 | 42% and 41.52% | 7.6 | 4.064 | 45.8 | 195 | 194 | 0.231 | 109 |
| O=C(O)c1cc(O)c(O)c(O)c1 [Gallic acid] | – | – | – | – | – | – | – | – | – | – | 21.8 | – | – | – | – | – | – |
| Oc1cccc(O)c1O [Pyrogallol] | – | – | – | – | – | – | – | – | – | – | 198 | – | – | – | – | – | – |
